Values of other authors, collected in patent publication US5654277A, “Peptides having thrombospondin-like activity and their therapeutic use” (W. R. Grace & Co.-Conn., priority 1995, dated 1997).

System: B16-F10 murine melanoma cells
Details: C57BL/6 mice

In the case of GRGDS, the “inhibition of lung colony formation / metastasis” value is listed as “dramatically inhibited the formation of lung colonies”.

For YIGSR, the “inhibition of lung colony formation / metastasis” value is given as “dramatically inhibited B16-F10 melanoma cell metastasis”.
